Experimental data: patent publication US20240368092A1, “2,4-Dihydro-3H-1,2,4-Triazol-3-One P2X7 Antagonists” (Breye Therapeutics ApS, priority 2021, published 2024)

How the values were obtained:
Assay type in all cases: cell-based
[1] = target: T1, human P2X7 channel (Homo sapiens, UniProt Q99572); test: human P2X7 channel assay by automated patch-clamp (QPatch 16X); conditions: HEK-293 cells expressing P2X7; current evoked by 100 microM BzATP; whole-cell, held at -80 mV; read-out: human Q-Patch (activity range)
T1 construct: expressed in transfected cells; host or cells: HEK-293
T1 sequence (Q99572 1-595): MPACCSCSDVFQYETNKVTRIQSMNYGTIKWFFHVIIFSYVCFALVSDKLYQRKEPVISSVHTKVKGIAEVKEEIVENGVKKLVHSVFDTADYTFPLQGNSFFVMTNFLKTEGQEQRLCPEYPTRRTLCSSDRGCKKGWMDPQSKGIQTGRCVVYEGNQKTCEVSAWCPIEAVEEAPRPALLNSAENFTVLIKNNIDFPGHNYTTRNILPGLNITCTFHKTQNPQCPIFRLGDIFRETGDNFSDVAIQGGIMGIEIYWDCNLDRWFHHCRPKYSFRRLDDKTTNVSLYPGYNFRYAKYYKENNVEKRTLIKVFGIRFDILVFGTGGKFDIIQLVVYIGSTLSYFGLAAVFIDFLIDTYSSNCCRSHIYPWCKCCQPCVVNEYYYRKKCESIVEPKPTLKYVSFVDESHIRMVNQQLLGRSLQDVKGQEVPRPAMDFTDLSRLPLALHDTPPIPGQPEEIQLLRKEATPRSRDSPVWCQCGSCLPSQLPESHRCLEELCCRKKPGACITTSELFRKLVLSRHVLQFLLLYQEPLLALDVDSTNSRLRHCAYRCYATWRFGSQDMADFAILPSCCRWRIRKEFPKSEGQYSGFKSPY
Description: In order to directly monitor the block of P2X7 channel, an electrophysiological assay was developed and implemented on the QPatchl6X automated electrophysiology instrument.
HEK-293 cells expressing the P2X7 channels were cultured in modified EMEM.
72 hours before experiment, 5 million cells were seeded onto T225 flasks. Just before the experiment cells were washed twice, detached from the flask with trypsin-EDTA, re-suspended in the suspension solution and placed on the QPatch 16x.
The compounds (20 mM in a 100% DMSO) stored at −20° C. were prepared the day of the experiment (a first dilution 1:20 in 100% DMSO to prepare a 1 mM stock solution, then a 1 microM solution in external solution+a serial dilution 1:10).
The standard whole-cell voltage clamp experiments were performed at room temperature. From these experiments the multihole technology was used and the data were sampled at 2 KHz.
The intracellular solution contained (mM) 135 CsF, 10 NaCl, 1 EGTA, 10 HEPES, (pH 7.2 with CsOH) whereas the extracellular contained (mM) 145 NaCl, 4 KCl, 0.5 MgCl2, 1 CaCl2, 10 HEPES, 10 Glc (pH 7.4 with NaOH).
After establishment of the seal and the passage in the whole cell configuration, the cells were held at −80 mV. The P2XR7 current was evoked by applying 100 microM of BzATP alone (4 times) and then in the presence increasing concentrations of the compound under investigation (1, 10, 100 and 1000 nM).
The pre-incubation periods 5 to 8 contain increasing concentrations of the compound of interest (1, 10, 100 and 1000 nM), as illustrated in FIGURE (application protocol).
The maximal inward current evoked by BzATP in absence or presence of increasing concentrations of the compounds under investigation was measured and normalized. The potential […] effect was measured as % of control and as IC50 determined fitting the dose-response curves data with the following equation:
Here are reported the potency ranges as A, B, C and D, where A is <10 nM; B is 10 nM-100 nM, C is 0.1-1 μM, D is 1-10 μM.

[2] = target: T2, humanP2X7 (Homo sapiens, UniProt Q99572); test: P2X7 channel calcium-influx assay (Fluo-8, FLIPR TETRA), human P2X7; conditions: HEK-293 cells stably transfected with P2X7; Bz-ATP at EC80; low divalent cation buffer; read-out: humanP2X7 (activity range)
T2 construct: expressed in transfected cells; host or cells: HEK-293
T2 sequence (Q99572 1-595): T1 sequence (Q99572 1-595)
Description: (§1) Extracellular binding of Bz-ATP to P2X7 receptor opens the channel and allows Ca^2+ influx into the cells. This Ca^2+ entry was measured in HEK-293 cells stably transfected with P2X7 receptor using Screen Quest™ Fluo-8 No Wash Calcium Assay Kit (AAt Bioquest®, cat. 36316). Once inside the cell, the lipophilic blocking groups of Fluo-8 are cleaved by non-specific cell esterases, resulting in a negatively-charged fluorescent dye that stays inside cells. Its fluorescence increases upon binding to calcium. When HEK-293/P2X7 cells are stimulated with Bz-ATP, Ca^2+ enters the cells and the fluorescence of Fluo-8 NW increases. The dye has an absorption spectrum compatible with excitation at 488 nm by argon laser sources and its emission wavelength is in the range of 515-575 nm.
(§2) HEK-293 cells stably transfected with P2X7 receptor were seeded overnight in growth medium at 10,000 to 20,000 cells/well in 384-well plate. 24 hours later, the medium was removed, and the cells were pre-loaded at RT for 1 hour with 20 μL/w of Fluo-8 NW. Then 10 μL/w of test compounds and reference antagonist A438079 at 3×-concentration were injected with the FLIPRTETRA and the kinetic response over a period of five minutes was monitored. A second injection of 15 μL/w of 3× reference activator (Bz-ATP at EC80) was performed with the FLIPR TETRA and the signal of the emitted fluorescence was recorded for additional three minutes. All the experiment was carried out in a Low Divalent Cation Assay Buffer (0.3 mM Ca^2+ and 0 mM Mg^2+). The effect of the test compounds was measured as percent inhibition vs the reference antagonist and IC50 values were calculated accordingly. Here are reported the potency ranges as A, B, C and D, where A is <200 nM; B is 200 nM-1 μM, C is 1-10 μM, D is 10-30 μM.

[3] = target: T3, mouseP2X7 (Mus musculus, UniProt Q9Z1M0); test: P2X7 channel calcium-influx assay (Fluo-8, FLIPR TETRA), mouse P2X7; conditions: HEK-293 cells stably transfected with P2X7; Bz-ATP at EC80; low divalent cation buffer; read-out: mouseP2X7 (activity range)
T3 construct: expressed in transfected cells; host or cells: HEK-293
T3 sequence (Q9Z1M0 1-595): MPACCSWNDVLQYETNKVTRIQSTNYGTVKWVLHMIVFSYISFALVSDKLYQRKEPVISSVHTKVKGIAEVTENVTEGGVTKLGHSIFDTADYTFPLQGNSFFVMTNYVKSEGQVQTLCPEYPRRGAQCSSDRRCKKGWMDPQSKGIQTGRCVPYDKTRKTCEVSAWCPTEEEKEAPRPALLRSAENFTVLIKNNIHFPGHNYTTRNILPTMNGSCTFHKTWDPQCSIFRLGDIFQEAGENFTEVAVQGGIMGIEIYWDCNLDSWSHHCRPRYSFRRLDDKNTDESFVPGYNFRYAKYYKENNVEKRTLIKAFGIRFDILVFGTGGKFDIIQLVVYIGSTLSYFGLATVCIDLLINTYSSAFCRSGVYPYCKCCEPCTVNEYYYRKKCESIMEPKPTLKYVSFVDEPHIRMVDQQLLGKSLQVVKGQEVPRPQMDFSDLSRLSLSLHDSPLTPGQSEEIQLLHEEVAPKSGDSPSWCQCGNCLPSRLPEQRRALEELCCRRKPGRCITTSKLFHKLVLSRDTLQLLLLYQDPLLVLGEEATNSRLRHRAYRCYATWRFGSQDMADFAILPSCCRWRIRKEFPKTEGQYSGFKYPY
Description: as §1, §2

[4] = target: T4, ratP2X7 (Rattus norvegicus, UniProt Q64663); test: P2X7 channel calcium-influx assay (Fluo-8, FLIPR TETRA), rat P2X7; conditions: HEK-293 cells stably transfected with P2X7; Bz-ATP at EC80; low divalent cation buffer; read-out: ratP2X7 (activity range)
T4 construct: expressed in transfected cells; host or cells: HEK-293
T4 sequence (Q64663 1-595): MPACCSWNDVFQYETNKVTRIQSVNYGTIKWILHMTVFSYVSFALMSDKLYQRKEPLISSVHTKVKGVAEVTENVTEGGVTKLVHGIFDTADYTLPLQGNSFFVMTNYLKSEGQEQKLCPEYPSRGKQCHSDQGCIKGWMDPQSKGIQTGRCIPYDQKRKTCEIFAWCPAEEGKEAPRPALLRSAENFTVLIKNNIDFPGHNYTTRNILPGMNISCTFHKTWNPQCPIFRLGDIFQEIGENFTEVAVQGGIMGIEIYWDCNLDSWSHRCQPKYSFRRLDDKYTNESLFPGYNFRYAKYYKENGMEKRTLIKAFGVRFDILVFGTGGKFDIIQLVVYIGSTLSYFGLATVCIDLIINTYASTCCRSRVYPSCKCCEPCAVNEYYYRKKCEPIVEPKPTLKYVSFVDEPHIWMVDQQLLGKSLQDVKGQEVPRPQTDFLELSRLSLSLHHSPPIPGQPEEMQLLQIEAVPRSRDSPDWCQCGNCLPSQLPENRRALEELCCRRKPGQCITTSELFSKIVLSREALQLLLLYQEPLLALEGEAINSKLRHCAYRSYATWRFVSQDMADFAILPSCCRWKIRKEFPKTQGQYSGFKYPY
Description: as §1, §2

SMILES | IC50 [1] [nM] | IC50 [2] [nM] | IC50 [3] [nM] | IC50 [4] [nM]
Cn1nc(Cc2c(F)cccc2Cl)n(CC2CCC(F)(F)CC2)c1=O [Example 3, 5-(2-chloro-6-fluorobenzyl)-4-((4,4-difluorocyclohexyl)methyl)-2-methyl-2,4-dihydro-3H-1,2,4-triazol-3-one] | 10 to 100 | < 200 | 200 to 1000 | < 200
CN1CCCCC1Cn1c(Cc2c(F)cccc2Cl)nn(C)c1=O (stereo not drawn) [Example 21, 5-(2-chloro-6-fluorobenzyl)-2-methyl-4-((1-methylpiperidin-2-yl)methyl)-2,4-dihydro-3H-1,2,4-triazol-3-one] | 1000 to 10000 | 1000 to 10000 | 10000 to 30000 | 1000 to 10000
Cn1nc(Cc2ccc(F)cc2Cl)n(CCC2CCC(C)(C)CC2)c1=O [Example 41, 5-(2-chloro-4-fluorobenzyl)-4-(2-(4,4-dimethylcyclohexyl)ethyl)-2-methyl-2,4-dihydro-3H-1,2,4-triazol-3-one] | 1000 to 10000 | 200 to 1000 | 10000 to 30000 | 1000 to 10000
CCn1nc(Cc2c(F)cccc2Cl)n(CC2CCC(F)(F)CC2)c1=O [Example 34, 5-(2-chloro-6-fluorobenzyl)-4-((4,4-difluorocyclohexyl)methyl)-2-ethyl-2,4-dihydro-3H-1,2,4-triazol-3-one] | 10 to 100 | < 200 | < 200 | < 200
Cn1nc(Cc2ccccc2F)n(CC2CCCCCC2)c1=O [Example 37, 4-(cycloheptylmethyl)-5-(2-fluorobenzyl)-2-methyl-2,4-dihydro-3H-1,2,4-triazol-3-one] | 100 to 1000 | 200 to 1000 | 200 to 1000 | < 200
Cn1nc(Cc2c(F)cccc2Cl)n(CC2CC3C(C2)C3(F)F)c1=O (stereo not drawn) [Example 5, 5-(2-chloro-6-fluorobenzyl)-4-((6,6-difluorobicyclo[3.1.0]hexan-3-yl)methyl)-2-methyl-2,4-dihydro-3H-1,2,4-triazol-3-one] | 10 to 100 | 200 to 1000 | 1000 to 10000 | < 200
Cn1nc(Cc2c(F)cccc2Cl)n(CC2CCCCCC2)c1=O [Example 12, 5-(2-chloro-6-fluorobenzyl)-4-(cycloheptylmethyl)-2-methyl-2,4-dihydro-3H-1,2,4-triazol-3-one] | < 10 | < 200 | < 200 | < 200

Second part, the compound after the results:

IC50 [1] [nM] | IC50 [2] [nM] | IC50 [3] [nM] | IC50 [4] [nM] | SMILES
10 to 100 | < 200 | 200 to 1000 | < 200 | Cn1nc(Cc2ccccc2Cl)n(CC2CCC(F)(F)CC2)c1=O [Example 42, 5-(2-chlorobenzyl)-4-((4,4-difluorocyclohexyl)methyl)-2-methyl-2,4-dihydro-3H-1,2,4-triazol-3-one]
100 to 1000 | 200 to 1000 | 1000 to 10000 | < 200 | Cn1nc(Cc2ccccc2C(F)(F)F)n(CC2CCC3(CC2)CC3)c1=O [Example 48, 2-methyl-4-(spiro[2.5]octan-6-ylmethyl)-5-(2-(trifluoromethyl)benzyl)-2,4-dihydro-3H-1,2,4-triazol-3-one]
100 to 1000 | 200 to 1000 | 1000 to 10000 | < 200 | Cn1nc(Cc2ccccc2F)n(CC2CCC(C(F)(F)F)CC2)c1=O (stereo not drawn) [Example 51, 5-(2-fluorobenzyl)-2-methyl-4-((4-(trifluoromethyl)cyclohexyl)methyl)-2,4-dihydro-3H-1,2,4-triazol-3-one]
1000 to 10000 | 1000 to 10000 | 10000 to 30000 | 200 to 1000 | CCn1nc(Cc2c(F)cccc2Cl)n(CC2CCC(F)(F)C2)c1=O (stereo not drawn) [Example 65, 5-[(2-chloro-6-fluorophenyl)methyl]-4-[(3,3-difluorocyclopentyl)methyl]-2-ethyl-2,4-dihydro-3H-1,2,4-triazol-3-one]
< 10 | < 200 | < 200 | < 200 | O=c1n(Cc2ccccc2)nc(Cc2c(F)cccc2Cl)n1CC1CCC(F)(F)CC1 [Example 50, 2-benzyl-5-(2-chloro-6-fluorobenzyl)-4-((4,4-difluorocyclohexyl)methyl)-2,4-dihydro-3H-1,2,4-triazol-3-one]
